What all share (format): binding
The target in one test is T1, TYK2 (Homo sapiens, UniProt P29597).
T1 construct: endogenous in cells; host or cells: Molt4 (ATCC CRL-1582) and Ramos (ATCC CRL-1596), mixed lysate 1:2
The test can be described thus: Kinobeads assay, TYK2. The note with it: mixed Molt4/Ramos lysate, read-out: Inhibition values (IC50) TYK2. The protocol: (§1) The compounds of the present invention as described in the previous examples were tested in a Kinobeads™ assay as described for ZAP-70 (WO-A 2007/137867). Briefly, test compounds (at various concentrations) and the affinity matrix with the immobilized aminopyrido-pyrimidine ligand 24 were added to cell lysate aliquots and allowed to bind to the proteins in the lysate sample. After the incubation time the beads with captured proteins were separated from the lysate. Bound proteins were then eluted and the presence of JAK1, JAK2, JAK3 and TYK2 was detected and quantified using specific antibodies in a dot blot procedure and the Odyssey infrared detection system. Dose response curves for individual kinases were generated and IC50 values calculated. Kinobeads™ assays for ZAP-70 (WO-A 2007/137867) and for kinase selectivity profiling (WO-A 2006/134056) have been previously described.
(§2) The affinity matrix was washed two times with 15 mL of lx DP buffer containing 0.2% NP40 (IGEPAL® CA-630, Sigma, #13021) and then resuspended in 1×DP buffer containing 0.2% NP40 (3% beads slurry).
(§3) 5×DP buffer: 250 mM Tris-HCl pH 7.4, 25% Glycerol, 7.5 mM MgCl2, 750 mM NaCl, 5 mM Na3VO4; filter the 5×DP buffer through a 0.22 μm filter and store in aliquots at −80° C. The 5×DP buffer is diluted with H2O to 1×DP buffer containing 1 mM DTT and 25 mM NaF.
(§4) Stock solutions of test compounds were prepared in DMSO. In a 96 well plate […] solution of diluted test compounds at 5 mM in DMSO were prepared. Starting with this solution a 1:3 dilution series (9 steps) was prepared. For control experiments (no test compound) a buffer containing 2% DMSO was used.
(§5) Molt4 cells (ATCC catalogue number CRL-1582) and Ramos cells (ATCC catalogue number CRL-1596) were grown in 1 L Spinner flasks (Integra Biosciences, #182101) in suspension in RPMI 1640 medium (Invitrogen, #21875-034) supplemented with 10% Fetal Bovine Serum (Invitrogen) at a density between 0.15×10^6 and 1.2×10^6 cells/mL. Cells were harvested by centrifugation, washed once with 1×PBS buffer (Invitrogen, #14190-094) and cell pellets were frozen in liquid nitrogen and subsequently stored at −80° C. Cells were homogenized in a Potter S homogenizer in lysis buffer: 50 mM Tris-HCl, 0.8% NP40, 5% glycerol, 150 mM NaCl, 1.5 mM MgCl2, 25 mM NaF, 1 mM sodium vanadate, 1 mM DTT, pH 7.5. One complete EDTA-free tablet (protease inhibitor cocktail, Roche Diagnostics, 1873580) per 25 mL buffer was added. The material was dounced 10 times using a mechanized POTTER S, transferred to 50 mL falcon tubes, incubated for 30 minutes on ice and spun down for 10 minutes at 20,000 g at 4° C. (10,000 rpm in Sorvall SLA600, precooled). The supernatant was transferred to an ultracentrifuge (UZ)-polycarbonate tube (Beckmann, 355654) and spun for 1 hour at 100.000 g at 4° C. (33.500 rpm in Ti50.2, precooled). The supernatant was transferred again to a fresh 50 mL falcon tube, the protein concentration was determined by a Bradford assay (BioRad) and samples containing 50 mg of protein per aliquot were prepared. The samples were immediately used for experiments or frozen in liquid nitrogen and stored frozen at −80° C.
(§6) Cell lysate (approximately 50 mg protein per plate) was thawed in a water bath at room temperature and then stored on ice. To the thawed cell lysate 1×DP 0.8% NP40 buffer containing protease inhibitors (1 tablet for 25 mL buffer; EDTA-free protease inhibitor cocktail; Roche Diagnostics 1873580) was added in order to reach a final protein concentration of 10 mg/mL total protein. The diluted cell lysate was stored on ice. Mixed Molt4/Ramos lysate was prepared by combining one volume of Molt4 lysate and two volumes of Ramos lysate (ratio 1:2).
(§7) To a 96 well filter plate (Multiscreen HTS, BV Filter Plates, Millipore #MSBVN1250) were added per well: 100 μL affinity matrix (3% beads slurry), […], of compound solution, and 50 μL of diluted lysate. […]

The target of the next test is T2, JAK2 (Homo sapiens, UniProt O60674).
T2 construct: endogenous in cells; host or cells: Molt4 (ATCC CRL-1582) and Ramos (ATCC CRL-1596), mixed lysate 1:2
The test can be described thus: Kinobeads assay, JAK2. As to conditions: mixed Molt4/Ramos lysate, read-out: Inhibition values (IC50) JAK2. Here is the method: as §1, §2, §3, §4, §5, §6, §7

The next test addresses T3, JAK1 (Homo sapiens, UniProt P23458).
T3 construct: endogenous in cells; host or cells: Molt4 (ATCC CRL-1582) and Ramos (ATCC CRL-1596), mixed lysate 1:2
The test can be described thus: Kinobeads assay, JAK1. The note with it: mixed Molt4/Ramos lysate, read-out: Inhibition values (IC50) JAK1. The protocol:
After the incubation time the beads with captured proteins were separated from the lysate. Bound proteins were then eluted and the presence of JAK1, JAK2, JAK3 and TYK2 was detected and quantified using specific antibodies in a dot blot procedure and the Odyssey infrared detection system. Dose response curves for individual kinases were generated and IC50 values calculated.
as §3
Stock solutions of test compounds were prepared in DMSO. […] Starting with this solution a 1:3 dilution series (9 steps) was prepared. For control experiments (no test compound) a buffer containing 2% DMSO was used.
Cells were homogenized in a Potter S homogenizer in lysis buffer: 50 mM Tris-HCl, 0.8% NP40, 5% glycerol, 150 mM NaCl, 1.5 mM MgCl2, 25 mM NaF, 1 mM sodium vanadate, 1 mM DTT, pH 7.5. […] The material was dounced 10 times using a mechanized POTTER S, transferred to 50 mL falcon tubes, incubated for 30 minutes on ice and spun down for 10 minutes at 20,000 g at 4° C. (10,000 rpm in Sorvall SLA600, precooled). […] (33.500 rpm in Ti50.2, precooled). The supernatant was transferred again to a fresh 50 mL falcon tube, the protein concentration was determined by a Bradford assay (BioRad) and samples containing 50 mg of protein per aliquot were prepared. The samples were immediately used for experiments or frozen in liquid nitrogen and stored frozen at −80° C.
Cell lysate (approximately 50 mg protein per plate) was thawed in a water bath at room temperature and then stored on ice. […] The diluted cell lysate was stored on ice. Mixed Molt4/Ramos lysate was prepared by combining one volume of Molt4 lysate and two volumes of Ramos lysate (ratio 1:2).
Plates were sealed and incubated for 3 hours in a cold room on a plate shaker (Heidolph tiramax 1000) at 750 rpm. Afterwards the plate was washed 3 times with 230 μL washing buffer (1×DP 0.4% NP40). […] The eluate was frozen quickly at −80° C. and stored at −20° C.
Afterwards the membrane was washed twice for 10 minutes with PBS buffer containing 0.2% Tween 20 at room temperature. […] Afterwards the membrane was washed twice for 10 minutes each with 1×PBS buffer containing 0.2% Tween 20 at room temperature. Then the membrane was rinsed once with PBS buffer to remove residual Tween 20. The membrane was kept in PBS buffer at 4° C. and then scanned with the Odyssey instrument. Fluorescence signals were recorded and analysed according to the instructions of the manufacturer.

Where only a bound is given, the exact number is not on record here.

For 26 compounds, IC50 results are on record in patent publication US20140179664A1, “Heterocyclyl Pyrimidine Analogues As JAK Inhibitors” (Cellzome Limited, priority 2011, published 2014).

What is called IC50 is the concentration that gives 50% inhibition.

T1 sequence (P29597 whole entry): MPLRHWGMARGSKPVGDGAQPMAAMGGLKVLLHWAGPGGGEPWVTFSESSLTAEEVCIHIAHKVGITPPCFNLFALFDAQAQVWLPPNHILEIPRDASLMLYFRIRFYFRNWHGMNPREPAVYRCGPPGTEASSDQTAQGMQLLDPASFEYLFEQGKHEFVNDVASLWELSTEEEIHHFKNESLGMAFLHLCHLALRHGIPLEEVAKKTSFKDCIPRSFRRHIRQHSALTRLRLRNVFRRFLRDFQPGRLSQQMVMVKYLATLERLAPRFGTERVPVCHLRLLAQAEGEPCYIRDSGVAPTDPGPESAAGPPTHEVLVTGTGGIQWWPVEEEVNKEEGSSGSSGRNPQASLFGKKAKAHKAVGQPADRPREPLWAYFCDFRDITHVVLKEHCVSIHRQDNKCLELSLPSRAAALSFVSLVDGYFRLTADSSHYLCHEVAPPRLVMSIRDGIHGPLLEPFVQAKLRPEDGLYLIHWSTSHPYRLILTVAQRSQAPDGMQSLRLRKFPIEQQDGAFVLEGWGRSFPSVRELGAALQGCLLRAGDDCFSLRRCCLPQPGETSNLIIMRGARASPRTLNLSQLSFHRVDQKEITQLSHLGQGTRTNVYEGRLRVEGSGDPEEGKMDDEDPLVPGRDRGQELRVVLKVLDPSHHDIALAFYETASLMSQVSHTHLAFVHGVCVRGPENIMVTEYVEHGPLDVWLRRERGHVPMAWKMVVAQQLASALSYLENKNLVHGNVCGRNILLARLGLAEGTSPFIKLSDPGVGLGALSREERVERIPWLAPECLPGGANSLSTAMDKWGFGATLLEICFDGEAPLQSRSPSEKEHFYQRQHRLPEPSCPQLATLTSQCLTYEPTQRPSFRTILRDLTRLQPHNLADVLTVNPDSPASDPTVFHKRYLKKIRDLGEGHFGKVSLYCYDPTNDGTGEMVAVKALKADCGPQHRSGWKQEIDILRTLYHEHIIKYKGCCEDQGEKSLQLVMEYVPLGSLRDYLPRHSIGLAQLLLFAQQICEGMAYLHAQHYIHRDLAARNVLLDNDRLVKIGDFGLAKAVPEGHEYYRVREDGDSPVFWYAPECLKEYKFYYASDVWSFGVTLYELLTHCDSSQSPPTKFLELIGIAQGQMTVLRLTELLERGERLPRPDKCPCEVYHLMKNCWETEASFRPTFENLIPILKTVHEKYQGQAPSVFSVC
T2 sequence (O60674 whole entry): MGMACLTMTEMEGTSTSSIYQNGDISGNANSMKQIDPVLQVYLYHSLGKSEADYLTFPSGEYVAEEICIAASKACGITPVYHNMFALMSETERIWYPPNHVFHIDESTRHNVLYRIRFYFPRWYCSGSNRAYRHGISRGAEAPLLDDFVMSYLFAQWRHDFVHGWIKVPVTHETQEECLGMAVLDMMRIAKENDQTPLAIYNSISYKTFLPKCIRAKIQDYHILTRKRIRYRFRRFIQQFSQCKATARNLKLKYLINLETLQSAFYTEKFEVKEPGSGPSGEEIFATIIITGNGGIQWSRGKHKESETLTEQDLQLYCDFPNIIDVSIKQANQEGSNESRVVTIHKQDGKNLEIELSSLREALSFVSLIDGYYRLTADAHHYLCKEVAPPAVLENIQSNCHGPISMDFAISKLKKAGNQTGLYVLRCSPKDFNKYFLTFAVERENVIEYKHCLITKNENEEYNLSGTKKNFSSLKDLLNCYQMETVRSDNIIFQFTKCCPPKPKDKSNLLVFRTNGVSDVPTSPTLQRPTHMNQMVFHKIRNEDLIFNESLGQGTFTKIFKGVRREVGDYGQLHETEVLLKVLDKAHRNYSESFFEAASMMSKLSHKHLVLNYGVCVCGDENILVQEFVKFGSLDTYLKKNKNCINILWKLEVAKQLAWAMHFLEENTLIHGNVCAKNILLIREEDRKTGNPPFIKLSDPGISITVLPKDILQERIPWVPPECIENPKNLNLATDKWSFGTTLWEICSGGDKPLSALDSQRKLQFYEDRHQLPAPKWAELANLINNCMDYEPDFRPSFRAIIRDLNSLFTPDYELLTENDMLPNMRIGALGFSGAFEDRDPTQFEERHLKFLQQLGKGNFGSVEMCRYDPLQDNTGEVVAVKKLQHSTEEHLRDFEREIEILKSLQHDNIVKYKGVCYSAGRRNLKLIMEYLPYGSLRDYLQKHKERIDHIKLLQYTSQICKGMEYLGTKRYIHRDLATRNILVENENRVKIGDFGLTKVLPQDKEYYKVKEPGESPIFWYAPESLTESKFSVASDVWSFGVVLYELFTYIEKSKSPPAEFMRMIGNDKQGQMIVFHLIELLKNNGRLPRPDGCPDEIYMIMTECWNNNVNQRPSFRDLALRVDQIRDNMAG
T3 sequence (P23458 whole entry): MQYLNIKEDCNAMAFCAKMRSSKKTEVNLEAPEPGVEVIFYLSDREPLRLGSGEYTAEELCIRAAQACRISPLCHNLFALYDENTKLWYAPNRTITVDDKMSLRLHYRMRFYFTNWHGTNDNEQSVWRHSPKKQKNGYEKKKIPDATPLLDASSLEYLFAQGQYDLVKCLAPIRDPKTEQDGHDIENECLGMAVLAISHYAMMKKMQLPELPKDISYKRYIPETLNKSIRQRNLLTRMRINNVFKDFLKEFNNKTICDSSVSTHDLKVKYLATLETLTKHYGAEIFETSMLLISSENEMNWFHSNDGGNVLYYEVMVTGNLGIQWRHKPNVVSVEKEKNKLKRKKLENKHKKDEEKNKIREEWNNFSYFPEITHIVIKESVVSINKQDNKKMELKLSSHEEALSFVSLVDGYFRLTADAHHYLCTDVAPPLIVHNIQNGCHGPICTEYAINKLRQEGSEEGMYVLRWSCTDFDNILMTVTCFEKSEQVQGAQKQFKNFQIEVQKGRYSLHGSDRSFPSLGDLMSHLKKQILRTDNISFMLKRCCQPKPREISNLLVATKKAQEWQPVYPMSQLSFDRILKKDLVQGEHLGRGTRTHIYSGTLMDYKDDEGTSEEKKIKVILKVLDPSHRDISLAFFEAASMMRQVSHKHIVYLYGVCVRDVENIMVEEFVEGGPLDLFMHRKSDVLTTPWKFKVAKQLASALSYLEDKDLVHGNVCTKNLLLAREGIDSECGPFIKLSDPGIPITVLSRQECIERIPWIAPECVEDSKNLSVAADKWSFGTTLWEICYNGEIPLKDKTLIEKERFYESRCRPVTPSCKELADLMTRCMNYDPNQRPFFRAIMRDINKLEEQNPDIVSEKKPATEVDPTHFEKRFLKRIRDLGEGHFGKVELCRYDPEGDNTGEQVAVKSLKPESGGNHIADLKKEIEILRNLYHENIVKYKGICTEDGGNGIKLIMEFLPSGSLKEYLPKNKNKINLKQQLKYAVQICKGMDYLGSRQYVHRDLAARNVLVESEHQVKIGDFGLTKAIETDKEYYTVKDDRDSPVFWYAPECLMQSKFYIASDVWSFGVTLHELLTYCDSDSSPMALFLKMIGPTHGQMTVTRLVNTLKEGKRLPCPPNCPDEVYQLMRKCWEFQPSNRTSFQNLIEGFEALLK

For the compound `NCCCn1cc(Nc2ncc(Cl)c(N[C@H](CO)c3ccccc3)n2)cn1` [Compound 113], the IC50 at TYK2, at JAK2 and on JAK1 was 1000 to 10000 nM throughout.
In the case of `CC(C)OCCn1cc(Nc2ncc(Cl)c(N[C@H](CO)c3ccccc3)n2)cn1` [Compound 114], the IC50 on TYK2, on JAK2 and at JAK1 was 1000 to 10000 nM in each case.
Regarding `CC(C)NC(=O)Cn1cc(Nc2ncc(Cl)c(N[C@H](CO)c3ccccc3F)n2)cn1` [Compound 115], the IC50 on TYK2 was 100 to 1000 nM; on JAK2, 1000 to 10000 nM; on JAK1 it was 100 to 1000 nM.
Regarding `C[C@@H](CO)NC(=O)Cn1cc(Nc2ncc(Cl)c(N[C@H](CO)c3ccccc3F)n2)cn1` [Compound 116], the IC50 fell in the range of 100 to 1000 nM on TYK2, 1000 to 10000 nM on JAK2 and 100 to 1000 nM on JAK1.
`Cn1cc(Nc2ncc(Cl)c(NC(CO)c3ccccc3Cl)n2)cn1` (stereo not drawn) [Compound 117]: the IC50 on TYK2, at JAK2 and at JAK1 was 1000 to 10000 nM throughout.
On to `NC(=O)Cn1cc(Nc2ncc(Cl)c(NC(CO)c3ccccc3Cl)n2)cn1` (stereo not drawn) [Compound 118], for which the IC50 fell in the range of 100 to 1000 nM at TYK2, 1000 to 10000 nM on JAK2 and 100 to 1000 nM at JAK1.
On to `CNC(=O)Cn1cc(Nc2ncc(Cl)c(NC(CO)c3ccccc3Cl)n2)cn1` (stereo not drawn) [Compound 119], for which the figures for the IC50 on TYK2, at JAK2 and at JAK1 were 1000 to 10000 nM, 1000 to 10000 nM and 100 to 1000 nM, respectively.
For the compound `OCCn1cc(Nc2ncc(Cl)c(NC(CO)c3ccccc3Cl)n2)cn1` (stereo not drawn) [Compound 120], the IC50 is 100 to 1000 nM at TYK2, 1000 to 10000 nM at JAK2 and 100 to 1000 nM on JAK1.
Turning to `Cn1cc(Nc2ncc(Cl)c(NC(CO)c3cc(F)cc(F)c3)n2)cn1` (stereo not drawn) [Compound 121], the results for the IC50 on TYK2, on JAK2 and at JAK1 were 1000 to 10000 nM, 1000 to 10000 nM and 100 to 1000 nM, respectively.
As for `OCCn1cc(Nc2ncc(Cl)c(NC(CO)c3cc(F)cc(F)c3)n2)cn1` (stereo not drawn) [Compound 122], the IC50 on TYK2, on JAK2 and on JAK1 was 100 to 1000 nM throughout.
On to `CNC(=O)Cn1cc(Nc2ncc(Cl)c(NC(CO)c3cc(F)cc(F)c3)n2)cn1` (stereo not drawn) [Compound 123], for which the IC50 on TYK2 lay in the range of 1000 to 10000 nM; at JAK2, 1000 to 10000 nM; on JAK1, 100 to 1000 nM.
With `Cn1cc(Nc2ncc(Cl)c(NC(CO)c3cccc(N4CCOCC4=O)c3)n2)cn1` (stereo not drawn) [Compound 124], the IC50 at TYK2 was 1000 to 10000 nM; on JAK2, ≥ 10000 nM; at JAK1 it was 1000 to 10000 nM.
In the case of `CCC(Nc1nc(Nc2cnn(C)c2)ncc1Cl)c1ccccc1F` (stereo not drawn) [Compound 125], the IC50 at TYK2, at JAK2 and on JAK1 was 1000 to 10000 nM in each case.
For `CCC(Nc1nc(Nc2cnn(CC(N)=O)c2)ncc1Cl)c1ccccc1F` (stereo not drawn) [Compound 126], the IC50 on TYK2 lay within 1000 to 10000 nM; on JAK2, 1000 to 10000 nM; at JAK1 it was 100 to 1000 nM.
Consider `CN(C)C(=O)C(Nc1nc(Nc2cnn(CCO)c2)ncc1Cl)c1ccccc1F` (stereo not drawn) [Compound 127], for which the IC50 at TYK2, at JAK2 and on JAK1 was 1000 to 10000 nM in each case.
For the compound `O=C(NCC(F)(F)F)C(Nc1nc(Nc2cnn(CCO)c2)ncc1Cl)c1ccccc1F` (stereo not drawn) [Compound 128], the concentration for half-maximal inhibition (IC50) is 1000 to 10000 nM at TYK2, ≥ 10000 nM on JAK2 and 1000 to 10000 nM at JAK1.
For `Cn1cc(Nc2ncc(Cl)c(NC(CO)c3cc(F)ccc3F)n2)cn1` (stereo not drawn) [Compound 129], the IC50 at TYK2, on JAK2 and at JAK1 was 100 to 1000 nM throughout.
On to `CNC(=O)Cn1cc(Nc2ncc(Cl)c(NC(CO)c3cc(F)ccc3F)n2)cn1` (stereo not drawn) [Compound 130], for which the IC50 was 100 to 1000 nM on TYK2, 100 to 1000 nM at JAK2 and < 100 nM on JAK1.
For `CNC(=O)Cn1cc(Nc2ncc(Cl)c(NC(CO)c3ccccc3C(F)(F)F)n2)cn1` (stereo not drawn) [Compound 131], the IC50 on TYK2 lay in the range of 100 to 1000 nM; at JAK2 it was 1000 to 10000 nM; on JAK1 it was 1000 to 10000 nM.
In the case of `NC(=O)Cn1cc(Nc2ncc(Cl)c(NC(CO)c3cc(F)ccc3F)n2)cn1` (stereo not drawn) [Compound 132], the IC50 at TYK2 is 100 to 1000 nM; at JAK2 it was 100 to 1000 nM; at JAK1, < 100 nM.
For `CNC(=O)Cn1cc(Nc2ncc(C)c(N[C@H](CO)c3ccccc3)n2)cn1` [Compound 133], the IC50 at TYK2, at JAK2 and at JAK1 was 1000 to 10000 nM throughout.
`Cc1cnc(Nc2cnn(CC(=O)N(C)C)c2)nc1N[C@H](CO)c1ccccc1` [Compound 134]: the half-inhibitory concentration (IC50) at TYK2 lay in the range of 1000 to 10000 nM; on JAK2, 1000 to 10000 nM; on JAK1, 100 to 1000 nM.
Consider `CN1CCC(n2cc(Nc3ncc(Cl)c(N[C@H](CO)c4ccccc4)n3)cn2)C1=O` (stereo partly drawn) [Compound 135], for which the IC50 at TYK2 lay in the range of 1000 to 10000 nM; at JAK2 it was 1000 to 10000 nM; at JAK1, 100 to 1000 nM.
Turning to `Cn1cc(Nc2ncc(Cl)c(N[C@H](CO)c3cccc(-c4cnn(C)c4)c3)n2)cn1` [Compound 136], the IC50 at TYK2 is ≥ 10000 nM; at JAK2, ≥ 10000 nM; at JAK1, > 10000 nM.
As to `Cn1cc(Nc2ncc(Cl)c(N[C@H](CO)c3cc(F)cc(-c4cnn(C)c4)c3)n2)cn1` [Compound 137], the IC50 at TYK2, on JAK2 and on JAK1 was 1000 to 10000 nM in each case.
In the case of `Cn1cc(Nc2ncc(Cl)c(N[C@H](CO)c3cccc(N4CCOCC4=O)c3)n2)cn1` [Compound 138], the IC50 at TYK2 is 1000 to 10000 nM; at JAK2, ≥ 10000 nM; at JAK1, 1000 to 10000 nM.
